Results reported in patent publication US20250270213A1, “PI3Ka INHIBITORS” (Synnovation Therapeutics, Inc., priority 2022, published 2025).

Tested on: T47D (PIK3CA H1047R) cells
Test: pS473 AKT assay with 2.5% FBS, T47D cells
Assay type: cell-based
Conditions: Homo sapiens, pSer473 AKT, DMEM with 2.5% FBS, 2 h treatment, read-out: T47D_IC50
Method in brief: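 In-cell chemiluminescent ELISA of AKT Ser473 phosphorylation, using anti-pSer473 primary and HRP secondary antibodies on fixed cells. T47D (PIK3CA H1047R) cells had 2 h of compound treatment in DMEM containing 2.5% FBS; IC50 derived from dose-response.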

SMILES	IC50
CC(=O)N1CCN(c2nc(Cl)ccc2NC(C)c2cc(C)cc3c(=O)n4c5c(cnn5CCC4)c23)CC1 (stereo not drawn) [Compound 293, 10-(1-((2-(4-acetylpiprerazin-1-yl)-6-chloropyridin-3-yl)amino)ethyl)-8-methyl-4,5-dihydro-3H,6H-2,2a,5a-triazaaceanthrylen-6-one]	< 1 µM
Cc1cc(C(C)Nc2ccc(Cl)nc2-c2ncn(CCO)n2)c2c(c1)c(=O)n1c3c2cnn3CCC1 (stereo not drawn) [Compound 297, 10-(1-((6-chloro-2-(1-(2-hydroxyethyl)-1H-1,2,4-triazol-3-yl)pyridin-3-yl)amino)ethyl)-8-methyl-4,5-dihydro-3H,6H-2,2a,5a-triazaaceanthrylen-6-one]	< 1 µM
Cc1cc(C(C)Nc2ccc(Cl)nc2-c2cnn(CCO)c2)c2c(c1)c(=O)n1c3c2cnn3CCC1 (stereo not drawn) [Compound 300, 10-(1-((6-chloro-2-(1-(2-hydroxyethyl)-1H-pyrazol-4-yl)pyridin-3-yl)amino)ethyl)-8-methyl-4,5-dihydro-3H,6H-2,2a,5a-triazaaceanthrylen-6-one]	< 1 µM
Cc1cc(C(C)Nc2ccc(Cl)nc2-c2cnn(C3CCCN(C)C3)c2)c2c(c1)c(=O)n1c3c2cnn3CCC1 (stereo not drawn) [Compound 302]	< 1 µM
Cc1cc(C(C)Nc2ccc(Cl)nc2-c2cnn(C3CCN(C)C3)c2)c2c(c1)c(=O)n1c3c2cnn3CCC1 (stereo not drawn) [Compound 303, 10-(1-((6-chloro-2-(1-(1-methylpyrrolidin-3-yl)-1H-pyrazol-4-yl)pyridin-3-yl)amino)ethyl)-8-methyl-4,5-dihydro-3H,6H-2,2a,5a-triazaaceanthrylen-6-one]	< 1 µM

The next lines start with the values.

IC50	SMILES
< 1 µM	Cc1cc(C(C)Nc2ccc(Cl)nc2N2CCC(O)CC2)c2c(c1)c(=O)n1c3c2cnn3CCC1 (stereo not drawn) [Compound 291, 10-(1-((6-chloro-2-(4-hydroxypiperidin-1-yl)pyridin-3-yl)amino)ethyl)-8-methyl-4,5-dihydro-3H,6H-2,2a,5a-triazaaceanthrylen-6-one]
< 1 µM	CNC(=O)C1CCN(c2nc(Cl)ccc2NC(C)c2cc(C)cc3c(=O)n4c5c(cnn5CCC4)c23)CC1 (stereo not drawn) [Compound 292, 1-(6-chloro-3-((1-(8-methyl-6-oxo-4,5-dihydro-3H,6H-2,2a,5a-triazaaceanthrylen-10-yl)ethyl)amino)pyridin-2-yl)-N-methylpiperidine-4-carboxamide]
< 1 µM	Cc1cc(C(C)Nc2ccc(Cl)nc2-c2nnco2)c2c(c1)c(=O)n1c3c2cnn3CCC1 (stereo not drawn) [Compound 294, 10-(1-((6-chloro-2-(1,3,4-oxadiazol-2-yl)pyridin-3-yl)amino)ethyl)-8-methyl-4,5-dihydro-3H,6H-2,2a,5a-triazaaceanthrylen-6-one]
< 1 µM	Cc1cc(C(C)Nc2ccc(Cl)nc2-c2ncn(C)n2)c2c(c1)c(=O)n1c3c2cnn3CCC1 (stereo not drawn) [Compound 296, 10-(1-((6-chloro-2-(1-methyl-1H-1,2,4-triazol-3-yl)pyridin-3-yl)amino)ethyl)-8-methyl-4,5-dihydro-3H,6H-2,2a,5a-triazaaceanthrylen-6-one]
< 1 µM	Cc1cc(C(C)Nc2ccc(Cl)nc2-c2nnn(C)n2)c2c(c1)c(=O)n1c3c2cnn3CCC1 (stereo not drawn) [Compound 298, 10-(1-((6-chloro-2-(2-methyl-2H-tetrazol-5-yl)pyridin-3-yl)amino)ethyl)-8-methyl-4,5-dihydro-3H,6H-2,2a,5a-triazaaceanthrylen-6-one]
< 1 µM	Cc1cc(C(C)Nc2ccc(Cl)nc2-c2cnn(C3CCOCC3)c2)c2c(c1)c(=O)n1c3c2cnn3CCC1 (stereo not drawn) [Compound 299, 10-(1-((6-chloro-2-(1-(tetrahydro-2H-pyran-4-yl)-1H-pyrazol-4-yl)pyridin-3-yl)amino)ethyl)-8-methyl-4,5-dihydro-3H,6H-2,2a,5a-triazaaceanthrylen-6-one]
< 1 µM	Cc1cc(C(C)Nc2ccc(Cl)nc2-c2cnn(C3CCN(C)CC3)c2)c2c(c1)c(=O)n1c3c2cnn3CCC1 (stereo not drawn) [Compound 301]
